Assay: xn = mol fraction of the nth substance listed, in the solute-free solvent

CN1CCC(N(Cc2cccs2)c2ccccc2)CC1 + CCCO + O
solubility (g/100 g solution)
Conditions | 278.15 K | 283.15 K | 288.15 K | 293.15 K | 298.15 K | 303.15 K | 308.15 K | 313.15 K | 318.15 K | 323.15 K
x2 = 0.03225 | 0.166 | 0.176 | 0.187 | 0.203 | 0.221 | 0.243 | 0.267 | 0.289 | 0.318 | 0.348
x2 = 0.06974 | 0.411 | 0.434 | 0.458 | 0.492 | 0.533 | 0.581 | 0.632 | 0.682 | 0.743 | 0.808
x2 = 0.1139 | 0.734 | 0.774 | 0.815 | 0.873 | 0.943 | 1.02 | 1.11 | 1.2 | 1.3 | 1.41
x2 = 0.1666 | 1.05 | 1.11 | 1.18 | 1.26 | 1.36 | 1.48 | 1.61 | 1.73 | 1.88 | 2.04
x2 = 0.2307 | 1.32 | 1.4 | 1.49 | 1.6 | 1.73 | 1.89 | 2.06 | 2.22 | 2.41 | 2.62
x2 = 0.3103 | 1.55 | 1.66 | 1.77 | 1.91 | 2.08 | 2.26 | 2.48 | 2.69 | 2.93 | 3.18
x2 = 0.4117 | 1.77 | 1.9 | 2.04 | 2.21 | 2.4 | 2.63 | 2.87 | 3.13 | 3.45 | 3.75
x2 = 0.5454 | 1.97 | 2.13 | 2.3 | 2.5 | 2.74 | 3 | 3.31 | 3.62 | 3.96 | 4.32
x2 = 0.7297 | 2.09 | 2.27 | 2.47 | 2.7 | 2.97 | 3.26 | 3.62 | 3.98 | 4.36 | 4.77
